Assays:
[1] = Passive avoidance task, memory retention test after cycloheximide-induced amnesia (retrieval process); assay type: in vivo, ICR male mice; conditions: cycloheximide 120 mg/kg i.p., test 24 h after training
Text: The passive avoidance task and the induction of amnesia by cycloheximide are experimental methods usually employed (Naoki Yamazaki et al.: Jap. J. Psychopharmacol., 3, 127 (1983)). The detailed method is described below. The apparatus used for the experiment was a plastic box 24 cm in height, 20 cm in width and 23 cm in length with a floor of iron grids at the corner of which was placed a platform 8 cm in length, 8 cm in width and 1.5 cm in height. When a mouse placed in the box was subjected to electric stimulus with a current of 0.3 mA for a period of approximately 3 seconds, the mouse escaped onto the platform. After subsequent non-stimulus period of 8 seconds, the mouse was subjected to the electric stimulus for an additional period of approximately 5 seconds. By this method, the mouse acquired memory of aversion that the electric stimulus would be delivered whenever the animal got off the platform, thus the passive avoidance task was established. The learning was judged to be established if the mouse placed on the platform under non-stimulus condition immediately after the training remained on it for 30 seconds or longer.
The test to observe whether or not a mouse retained memory of aversion was performed 24 hours after the training and percent memory retention was calculated according to the following equation: [formula]
In order to induce deficits of memory, the animal was intraperitoneally administered 15 min prior to the training with a physiological saline solution of cycloheximide at a dose of 120 mg/kg., and then subjected to the electric stimulus for training.
A memory retention test was performed 24 hours after training. An intraperitoneal administration was done 75 min. prior to the test respectively for L-N^6 -phenylisopropyladenosine (Compound A) and N^6 -cyclohexyladenosine (Compound C), 60 min. prior to the test respectively for 2-chloroadenosine(Compound B) and adenosine-5'-(N-cyclopropyl)carboxamide (Compound E) and 45 min. prior to the test for adenosine-5'-(N-ethyl)carboxamide (Compound D).

[2] = Acute toxicity (LD50) in mice by intraperitoneal administration; conditions: mouse, in vivo, ip
[3] = 100 μg/kg i.p., 75 min prior to test

Compound: C[C@H](Cc1ccccc1)Nc1ncnc2c1ncn2[C@@H]1O[C@H](CO)[C@@H](O)[C@H]1O [Compound A, L-N^6 -phenylisopropyladenosine]
- Percent memory retention ([1]; 50 μg/kg i.p., 75 min prior to test): 36.8%
- Percent memory retention [1, 3]: 55.0%
- LD50 [2]: 31 mg/kg

Compound: Nc1nc(Cl)nc2c1ncn2[C@@H]1O[C@H](CO)[C@@H](O)[C@H]1O [Compound B, 2-chloroadenosine]
- Percent memory retention ([1]; 500 μg/kg i.p., 60 min prior to test): 35.0%
- Percent memory retention ([1]; 1000 μg/kg i.p., 60 min prior to test): 52.4%
- LD50 [2]: 45 mg/kg

Compound: CCNC(=O)[C@H]1O[C@@H](n2cnc3c(N)ncnc32)[C@H](O)[C@@H]1O [Compound D, adenosine-5'-(N-ethyl)carboxamide]
- Percent memory retention ([1]; 3 μg/kg i.p., 45 min prior to test): 39.3%
- Percent memory retention ([1]; 7 μg/kg i.p., 45 min prior to test): 42.3%
- Percent memory retention ([1]; 10 μg/kg i.p., 45 min prior to test): 51.4%

Compound: Nc1ncnc2c1ncn2[C@@H]1O[C@H](C(=O)NC2CC2)[C@@H](O)[C@H]1O [Compound E, adenosine-5'-(N-cyclopropyl)carboxamide]
- Percent memory retention ([1]; 1 μg/kg i.p., 60 min prior to test): 25.0%
- Percent memory retention ([1]; 3 μg/kg i.p., 60 min prior to test): 40.0%
- Percent memory retention ([1]; 10 μg/kg i.p., 60 min prior to test): 62.1%
- Percent memory retention ([1]; 30 μg/kg i.p., 60 min prior to test): 66.7%

Compound: OC[C@H]1O[C@@H](n2cnc3c(NC4CCCCC4)ncnc32)[C@H](O)[C@@H]1O [Compound C, N^6 -cyclohexyladenosine]
- Percent memory retention ([1]; 10 μg/kg i.p., 75 min prior to test): 14.8%
- Percent memory retention [1, 3]: 20.8%
- Percent memory retention ([1]; 300 μg/kg i.p., 75 min prior to test): 66.7%

Reference: patent publication US5023244A, “Anti-dementia agents” (Hoechst Japan Limited, priority 1986, dated 1991)
